According to patent US20020076402A1, “Enzyme-based fungicidal composition” (Universite Pierre et Marie Curie, priority 1998, published 2002):

Columns and labels:
corn = test: Pelliculisation of corn: degree of germination; assay type: in vivo
Description: When the test is applied to pelliculised grains or seeds, the degree of germination is determined by the number of grains germinated over the total number of grains, and compared with those of non pelliculised batches, or grains that are pelliculised grains in the absence of enzymes and/or their substrate.
Chitinases alone: quantity used to pelliculise 3 to 4 g of corn naturally contaminated with the phytopathogenic fungi Fusarium nivale and Fusarium roseum: 100 mg of CNase was mixed with 3.4 ml of a suspension of Sepiret 7017 Argent composed of 3.6 g of the commercial suspension and 10 ml of water.
Laminarinases alone: quantity used to pelliculise 2 g of contaminated corn: 40 mg of freeze-dried LMase with a filter of 17 units/mg were mixed with 2 ml of a suspension of Sepiret 7017 Argent composed of 3 g of the commercial suspension and 5 ml of water.
Lysozyme alone: quantity used to pelliculise 2 g of contaminated corn: 100 mg of LZ was mixed with 2 ml of a suspension of Sepiret 7017 Argent composed of 5 g of the commercial suspension and 7.1 ml of water.
(§1) Germination inhibition test: The pelliculised grains were placed in Petri dishes containing the growth medium. On the fifth day, the degree of contamination (number of contaminated grains/total number of grains) and degree of germination (number of germinated grains/total number of grains) were determined and compared with those of batches pelliculised with Sepiret 01G alone.
(§2) Formulation: An aqueous suspension of Sepiret 7017 Argent composed of 7 g of commercial slip and 10 ml of water was used. 100 mg of the substances shown below was mixed with 2 ml of the above suspension and this mixture was used to pelliculise batches of 2 g of corn. This latter originated from a culture naturally contaminated with Fusarium nivale and Fusarium roseum: […]
(§3) Mixtures tested: (quantities used to pelliculise 2 g of corn: […]

[1] = system: Fusarium nivale and Fusarium roseum; test: Pelliculisation of corn: degree of contamination by Fusarium sp.; assay type: in vivo
Description: as §1, §2, §3

[2] = Example 3 mono-enzymatic mixtures in Sepiret 7017 Argent, fifth day
[3] = Example 4, 100 mg substance in 2 ml Sepiret 7017 Argent suspension per 2 g corn, day five

lysozyme hydrochloride [LZ]
relative variation of degree of germination (corn; Example 3, vs own control): +20% | Degree of germination (corn; [2]): 85% | inhibition of Fusarium sp. fungi (in words) ([1]; Example 3, enzyme alone): no effect | Degree of contamination [1, 2]: 65%

CC(=O)N[C@H]1C(O)O[C@H](CO)[C@@H](O)[C@@H]1O (stereo partly shown) [NAG, N-acetylglucosamine, reference compound]
Germination (corn; [3]): 65% | Contamination [1, 3]: 70% | effect on degree of contamination (in words) ([1]; Example 4, vs reference): no effect
